Here are results for 5 compounds from ChEMBL document CHEMBL4385658, “Inhibition of β-amyloid-induced neurotoxicity by planar analogues of procyanidin B3” (Bioorg Med Chem Lett, 2019).

In data set [1] the target is Amyloid-beta precursor protein (Homo sapiens) (UniProt P05067). The data set is described as follows: Inhibition of Amyloid beta (1 to 42) (unknown origin) self aggregation at 20 uM incubated for 12 hrs by thioflavin T assay.
The target is the same in data set [2]. The experiment in a line: Inhibition of Amyloid beta (1 to 42) (unknown origin)-induced cytotoxicity in human SH-SY5Y cells assessed as increase in cell viability at 20 uM incubated for 48 hrs by WST8 assay. In kind it is cell-based. On the technique in general: Formazan colour is commonly taken as a measure of viable cells.
For data set [3] the target is unchanged. The experiment in a line: Inhibition of Amyloid beta (1 to 42) (unknown origin)-induced cytotoxicity in human SH-SY5Y cells assessed as increase in cell viability incubated for 48 hrs by WST8 assay. The data set is classed as cell-based.
Data set [4] has the same target. The experiment in a line: Inhibition of Amyloid beta (1 to 42) (unknown origin) fibril formation assessed as reduction in number of fibrils at 20 uM incubated for 48 hrs by transmission-type electron microscopy.
Data set [5] shares this target. The experiment in a line: Inhibition of Amyloid beta (1 to 42) (unknown origin) fibril formation assessed as reduction in thickness of fibrils at 20 uM incubated for 48 hrs by transmission-type electron microscopy.
The test system of a further data set is SH-SY5Y. The data set is described as follows: Cytotoxicity in human SH-SY5Y cells assessed as reduction in cell viability at 0.1 to 1000 nM incubated for 48 hrs by WST8 assay. The data set is classed as cell-based. Particulars: 1 µM.
Data set [6] addresses Amyloid-beta precursor protein (Homo sapiens) (UniProt P05067). The experiment in a line: Inhibition of Amyloid beta (1 to 42) (unknown origin) self aggregation assessed as decrease in negative maximum of CD spectrum of amyloid beta (1-42) incubated for 4 hrs by CD spectroscopy.
For data set [7] the target is unchanged. The experiment in a line: Inhibition of Amyloid beta (1 to 42) (unknown origin)-induced cytotoxicity in human SH-SY5Y cells assessed as increase in cell viability at 40 uM incubated for 48 hrs by WST8 assay. In kind it is cell-based.

Active and inactive are the calls of the source. No cut-off for these calls is given here.

Chain of Amyloid-beta precursor protein (Homo sapiens) (P05067 whole entry): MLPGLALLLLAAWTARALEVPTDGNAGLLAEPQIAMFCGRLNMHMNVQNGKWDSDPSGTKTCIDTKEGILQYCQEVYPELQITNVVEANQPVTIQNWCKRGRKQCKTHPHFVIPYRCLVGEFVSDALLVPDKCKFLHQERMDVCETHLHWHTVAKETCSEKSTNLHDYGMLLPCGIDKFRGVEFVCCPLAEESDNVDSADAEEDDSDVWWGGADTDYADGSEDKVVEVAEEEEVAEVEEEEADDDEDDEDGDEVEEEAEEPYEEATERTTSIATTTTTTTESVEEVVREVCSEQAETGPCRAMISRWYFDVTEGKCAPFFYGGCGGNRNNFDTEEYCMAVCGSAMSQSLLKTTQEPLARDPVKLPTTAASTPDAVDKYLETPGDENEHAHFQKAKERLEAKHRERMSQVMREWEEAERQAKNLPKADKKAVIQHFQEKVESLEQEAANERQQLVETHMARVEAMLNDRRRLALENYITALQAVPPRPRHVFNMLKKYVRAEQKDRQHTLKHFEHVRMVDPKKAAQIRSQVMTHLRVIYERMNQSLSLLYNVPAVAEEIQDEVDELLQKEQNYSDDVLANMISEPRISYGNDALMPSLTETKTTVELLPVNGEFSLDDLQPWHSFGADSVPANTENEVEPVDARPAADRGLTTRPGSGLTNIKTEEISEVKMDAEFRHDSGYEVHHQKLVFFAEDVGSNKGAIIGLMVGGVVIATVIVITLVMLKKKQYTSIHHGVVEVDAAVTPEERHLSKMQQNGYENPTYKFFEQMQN

On to `CC1(C)O[C@H]2[C@H](c3c(O)cc(O)c4c3O[C@@H]3c5cc(O)c(O)cc5C(C)(C)O[C@H]3C4)c3c(O)cc(O)cc3O[C@@H]2c2cc(O)c(O)cc21`, for which the inhibition result in data set [1], in data set [4], in data set [5] and in data set [6] was “Active” each time. The inhibition is 100% in data set [2] and “Dose-dependent effect” in data set [3]. Also, the Activity result in the data set with SH-SY5Y is recorded as “Non-Toxic”.
With `CC1(C)O[C@H]2Cc3c(O)cc(O)cc3O[C@@H]2c2cc(O)c(O)cc21`, the inhibition result in data set [1] was “Active”.
On the same count and under the same terms, in the case of `Oc1cc(O)c2c(c1)O[C@H](c1ccc(O)c(O)c1)[C@@H](O)C2` it was “Active”.
Turning to `CC1(C)O[C@H]2Cc3c(O)cc(O)c([C@@H]4c5c(O)cc(O)cc5O[C@H](c5ccc(O)c(O)c5)[C@H]4O)c3O[C@@H]2c2cc(O)c(O)cc21`, the inhibition entry in data set [1] is “Active”. Further, the values for the inhibition entry in data set [3] and in data set [7] were “Dose-dependent effect” and 100%, respectively. Moreover, the Activity entry with SH-SY5Y was “Non-Toxic”.
In the same order, the values of `Oc1cc(O)c2c(c1)O[C@H](c1ccc(O)c(O)c1)[C@@H](O)[C@@H]2c1c(O)cc(O)c2c1O[C@H](c1ccc(O)c(O)c1)[C@@H](O)C2` are “Active”, “Dose-dependent effect”, 100% and “Non-Toxic”.

The inhibition is the percentage by which the read-out fell short of the control.
